Results published in US7601688B2, “Methods of reducing hypoglycemic episodes in the treatment of diabetes mellitus” (Biocon Limited, priority 2001, dated 2009).

What was measured:
[1] = Dose titration study of oral HIM2 vs. insulin lispro: glucodynamics; assay type: in vivo, human; conditions: adult type 1 diabetes patients; for Day 3 - 2 Hour Post-prandial Glucose, Breakfast (Mean ± SEM) / Day 3 - 2 Hour Post-prandial Glucose, Dinner (Mean ± SEM) / Day 3 - 2 Hour Post-prandial Glucose, Evening Snack (Mean ± SEM) / Day 3 - 2 Hour Post-prandial Glucose, Lunch (Mean ± SEM): basal CSII, HIM2 p.o., Lispro s.c., titrated doses; for Day 3 - 2 Hour Post-prandial Glucose, Breakfast (Mean ± SEM): after breakfast, p = 0.28; for Day 3 - 2 Hour Post-prandial Glucose, Dinner (Mean ± SEM): after dinner, p = 0.07; for Day 3 - 2 Hour Post-prandial Glucose, Evening Snack (Mean ± SEM): after evening snack, p = 0.24; for Day 3 - 2 Hour Post-prandial Glucose, Lunch (Mean ± SEM): after lunch, p = 0.29; for Day 3 - Daily Mean (±SEM) Plasma Glucose AUC: total 24-hour AUC divided by 1440 (time-adjusted), p = 0.46; for Patients with average 2-hour post-prandial glucose levels consistent with pre-study values (range 80-250 mg/dL): Fisher's exact test p=0.42
Procedure: A 3-day inpatient dosing period was performed.
Assays: Plasma glucose: glucose oxidase-based enzymatic assay. Plasma insulin: RIA method (Linco Research, St. Charles, Mo.). […] (2) Daily mean plasma glucose on Day 3. (3) Postprandial glucose at 2 hours during Day 3. (4) Number of rescue interventions (hypoglycemia).

[2] = in vivo
Procedure: Study Objectives: To evaluate whether HIM2 doses, when titrated, are able to maintain 2-hour post-prandial blood glucose levels consistent with the pre-study range between 80-250 mg/dL as compared to insulin lispro and to evaluate the safety profile for HIM2. Patient Population: Adult patients with type 1 diabetes participated in the study. […] Design and Methods: A multicenter, dose titration, randomized, insulin lispro controlled, parallel, open-label study was conducted. A 2-day inpatient period was provided to establish optimal basal rate. A 5-7 day run-in period (maintained optimized basal rate; insulin requirements, episodes of hypoglycemia or hyperglycemia, dietary intake and physical activity recorded) was provided. A 3-day inpatient dosing period was performed. Carbohydrate intake was individualized (40% of total calories, equally divided among 4 meals during each study day). Basal insulin (CSII) was unchanged throughout the 3-day dosing period. Initial Doses: HIM2 0.25 mg/kg (7.2 U/kg; 1 mg of insulin=28.7 units of insulin), p.o., in a formulation shown in Table 1, 10 minutes prior to meal, HIM2 0.125 mg/kg (3.6 U/kg; 1 mg of insulin=28.7 units of insulin), p.o., in a formulation shown in Table 1, 120 minutes post meal, and Insulin lispro (commercially available from Eli Lilly & Co., Indianapolis, Ind.) (hereinafter “Lispro”), 0.1 U/kg (0.003 mg/kg; 1 mg of insulin=28.7 units of insulin), s.c., 15 minutes prior to meal. Doses were adjusted as necessary with the next scheduled dose according to the dose titration rules described in Table 2; however, no dose titration was allowed during study day 3.
Assays: Plasma glucose: glucose oxidase-based enzymatic assay. Plasma insulin: RIA method (Linco Research, St. Charles, Mo.). Efficacy Variables: The following variables were evaluated to determine efficacy of HIM2 compared to Lispro. (1) Percentage of patients able to maintain 2-hour postprandial blood glucose levels consistent with pre-study values between 80-250 mg/dL on Day 3 (HIM2 compared to insulin lispro). (2) Daily mean plasma glucose on Day 3. (3) Postprandial glucose at 2 hours during Day 3. (4) Number of rescue interventions (hypoglycemia). Safety Variables: Adverse events, vital signs, clinical chemistry, hematology, urinalysis, and ECG monitoring. Data Analysis: A comparison of proportion of patients within target glucose range (80-250 mg/dL) was analyzed. The daily mean plasma glucose AUC was analyzed using a t-test. The Day 3-2 hour post-prandial glucose was analyzed using a t-test. Comparison of rates for hypoglycemic events was analyzed using glucose 50-60 mg/dL, glucose ≦50 mg/mL, and number of rescue interventions. Demographics: A total of 31 patients were enrolled and analyzed in this study (15 M/16 F).

| Substance | Day 3 - 2 Hour Post-prandial Glucose, Breakfast (Mean ± SEM) [1] | Day 3 - 2 Hour Post-prandial Glucose, Dinner (Mean ± SEM) [1] | Day 3 - 2 Hour Post-prandial Glucose, Evening Snack (Mean ± SEM) [1] | Day 3 - 2 Hour Post-prandial Glucose, Lunch (Mean ± SEM) [1] | Day 3 - Daily Mean (±SEM) Plasma Glucose AUC [1] [mg/dL] | Patients with average 2-hour post-prandial glucose levels consistent with pre-study values (range 80-250 mg/dL) [1] [%] | Documented serious adverse event for hypoglycemia [2] | Hypoglycemic events that required rescue intervention [2] | Number and frequency of gastrointestinal side effects (primarily unpleasant taste and diarrhea) [2] | Number of hypoglycemic events (overall assessment) [2] |
| --- | --- | --- | --- | --- | --- | --- | --- | --- | --- | --- |
| Insulin lispro [reference compound] | 158.2 ± 24.3 | 195.3 ± 20.6 | 197.9 ± 20.4 | 202.6 ± 16.1 | 170.6 ± 11.8 | 83 | – | – | – | – |
| Lys^B29-Hexyl-PEG7-Oligomer-Conjugated Insulin [HIM2] | 192.3 ± 19.4 | 249.0 ± 19.3 | 231.4 ± 18.4 | 232.9 ± 21.0 | 182.0 ± 10.0 | 63 | One | significantly lower | occurred more frequently | trend toward fewer events |
